In patent US9249151B2, “Bis-amido pyridines” (Boehringer Ingelheim International GmbH, priority 2013, dated 2016):

Target: BIR3 domain of human cIAP1 (amino acids 256 to 363; cIAP1 BIR3) (Homo sapiens (Human), UniProt Q13490)
Assay: cIAP1 BIR3 binding assay (DELFIA)
Settings: BIR3 domain 10 nM, SMAC peptide 10 nM; values represent the (S)-isomers; * = racemic compound; read-out: cIAP1 BIR-3 IC50
Description: XIAP BIR3 and cIAP1 BIR3 Binding Assays (DELFIA)
Peptide […]-Lys(Biotin), representing the N-terminus of mature human SMAC (SMAC peptide), was used as interaction partner in the protein-peptide interaction assay.
BIR3 domains (10 nM) were incubated with SMAC peptide (10 nM) in assay buffer (50 mM Tris, 120 mM NaCl, 0.1% BSA, 1 mM DTT, 0.05% TritonX100) for one hour at room temperature in the presence of inhibitory compounds. The assay mixture was transferred to a streptavidin coated plate and incubated for one hour at room temperature to allow binding of the biotinylated peptide and associated BIR3 domains to the plate. After several washing steps Eu labeled anti-GST antibody (e.g. Perkin Elmer DELFIA Eu-N1-antiGST AD0250) was added to detect BIR3 domain-SMAC peptide interactions m according to Perkin Elmer's instructions. […] Time resolved Europium fluoresecence was measured in a Wallac Victor using Standard assay settings.
DELFIA assay results were plotted against compound concentrations and Software GraphPad Prizm was used to calculate half maximal inhibitory concentrations (IC50 values).

Sequence of BIR3 domain of human cIAP1 (amino acids 256 to 363; cIAP1 BIR3) (Q13490 256-363): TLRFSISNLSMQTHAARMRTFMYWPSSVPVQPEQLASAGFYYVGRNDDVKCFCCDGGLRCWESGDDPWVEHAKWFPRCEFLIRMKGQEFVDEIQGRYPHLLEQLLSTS

Question: Which IC50 does the source give for CNC(C)C(=O)Nc1cc(-c2cccc3cnn(C)c23)cc(NC(=O)c2ccc(Cl)cn2)n1 (stereo not shown) [Example 7, 5-chloro-N-[4-(1-methyl-1H-indazol-7-yl)-6-[2-(methylamino)propanamido]-pyridin-2-yl]pyridine-2-carboxamide] here?
Answer: Its IC50 is 3 nM.
